Source: patent publication US8076374B2 (Eli Lilly and Company, priority 2005, dated 2011)

Molecular target: cloned human glucagon receptor (Homo sapiens, UniProt P47871)
Assay: Glucagon Receptor (hGlucR) Binding Assay
Protocol: This plasmid DNA is transfected into 293 HEK cells and selected with 200 μg/mL Hygromycin.
Crude plasma membranes are prepared using cells from suspension culture. The cells are lysed on ice in hypotonic buffer containing 25 mM Tris HCL, pH 7.5, 1 mM MgCl2, DNAsel, 20 u/mL, and Roche Complete Inhibitors-without EDTA. The cell suspension is homogenized with a glass dounce homogenizer using a Teflon pestle for 25 strokes. The homogenate is centrifuged at 4 degrees C. at 1800×g for 15 mins. The supernate is collected and the pellet is resuspended in hypotonic buffer and rehomogenized. The mixture is centrifuged at 1800×g for 15 mins. The second supernate is combined with the first supernate. The combined supernates are recentrifuged at 1800×g for 15 mins to clarify. The clarified supernate is transferred to high speed tubes and centrifuged at 25000×g for 30 minutes at 4 degrees C. The membrane pellet is resuspended in homogenization buffer and stored as frozen aliquots at −80 degree C. freezer until needed.
The specific activity is 2200 Ci/mmol.
The binding buffer contains 25 mM Hepes, pH 7.4, 2.5 mM CaCl2, 1 mM MgCl2, 0.1% fatty acid free BSA, (ICN), 0.003% tween-20, and Roche Complete Inhibitors without EDTA. […] Test compounds are dissolved in DMSO and serially diluted in DMSO. […] Plates are read with a MicroBeta after 14 hours of settling time at room temp.

Chain of cloned human glucagon receptor (P47871 26-477): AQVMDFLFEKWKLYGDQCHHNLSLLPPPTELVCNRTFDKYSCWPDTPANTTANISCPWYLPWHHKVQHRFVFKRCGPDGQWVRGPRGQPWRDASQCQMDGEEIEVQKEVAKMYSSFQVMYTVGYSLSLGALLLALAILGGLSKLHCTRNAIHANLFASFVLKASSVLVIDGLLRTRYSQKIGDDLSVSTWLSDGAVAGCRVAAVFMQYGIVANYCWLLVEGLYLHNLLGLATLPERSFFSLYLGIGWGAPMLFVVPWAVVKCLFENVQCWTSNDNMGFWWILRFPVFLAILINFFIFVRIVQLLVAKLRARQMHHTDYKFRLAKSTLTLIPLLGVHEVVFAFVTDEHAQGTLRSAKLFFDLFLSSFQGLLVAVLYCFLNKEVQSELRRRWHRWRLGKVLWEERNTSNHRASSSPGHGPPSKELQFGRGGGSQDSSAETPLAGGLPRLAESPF

SMILES	Ki [nM]
C=CCC(CC=C)(COc1cc(C)c(-c2ccc(C(F)(F)F)cc2)c(C)c1)c1ccc(C(=O)NCCC(=O)O)cc1	87
Cc1cc(OCC(c2ccc(C(=O)NCCC(=O)O)cc2)C(C)C)cc(C)c1-c1ccc(C(C)(C)C)cc1 (centres unmarked)	61
